Data taken from ChEMBL document CHEMBL4428031, “Verbascoside Inhibits Promastigote Growth and Arginase Activity of Leishmania amazonensis” (J Nat Prod, 2016).
Active and inactive are the calls of the source. The rule behind the calls is not given here.

Columns and labels:
Leishmania donovani = assay: Antileishmanial activity against Leishmania donovani axenic amastigotes after 72 hrs by alamar blue assay; format: functional, organism-based
Leishmania amazonensis [1] = assay: Antileishmanial activity against Leishmania amazonensis MHOM/BR/1973/M2269 promastigotes assessed as reduction in cell viability incubated up to 72 hrs by trypan blue dye based Neubauer chamber method; format: functional, organism-based; conditions: MHOM/BR/1973/M2269, 72 h
Arginase = Arginase (Leishmania amazonensis, UniProt O96394); assay: Competitive inhibition of Leishmania amazonensis arginase assessed as inhibition constant for enzyme-inhibitor complex using L-arginine as substrate incubated for 15 mins by Dixon plot analysis
Leishmania amazonensis [2] = assay: Antileishmanial activity against Leishmania amazonensis MHOM/BR/1973/M2269 promastigotes assessed as reduction in cell viability at 100 uM after 72 hrs by trypan blue dye based Neubauer chamber method; format: functional, organism-based

Ki (Arginase): 0.7 µM
Compound: C[C@@H]1O[C@@H](O[C@@H]2[C@@H](O)[C@H](OCCc3ccc(O)c(O)c3)O[C@H](CO)[C@H]2OC(=O)/C=C/c2ccc(O)c(O)c2)[C@H](O)[C@H](O)[C@H]1O [ACETOSIDE]
EC50 (Leishmania donovani): 14 µM
EC50 (Leishmania amazonensis [1]): 19 µM
Activity (Leishmania amazonensis [2]): Active
